This note sets out measurements from patent US9708336B2, “Metallo-beta-lactamase inhibitors” (priority 2014, dated 2017).

In assay [1] the target is IMP-1 (Serratia marcescens, UniProt P52699). Kind of assay: biochemical. The class given is biochemical. Particulars: IMP-1 enzyme, CCF2-FA substrate; read-out: IMP-1 IC50.
The target of assay [2] is VIM-1 (Pseudomonas aeruginosa (strain ATCC 15692 / DSM 22644 / CIP 104116 / JCM 14847 / LMG 12228 / 1C / PRS 101 / PAO1), UniProt A0A0F7KYQ8). Kind of assay: Enzyme activity: determination of IC50, fluorescence assay with CCF2-FA substrate (VIM-1). The class given is biochemical. To be noted: VIM-1 enzyme, CCF2-FA substrate; read-out: VIM-1 IC50.
The subject of assay [3] is Klebsiella pneumoniae expressing VIM-1 (IHMA599644). The assay is described as follows: Antibiotic potentiation activity: synergistic concentration (MITC95) with imipenem, OD600 growth. Particulars: Klebsiella pneumoniae IHMA599644 (VIM-1), 95% growth inhibition. The class given is cell-based. The method, boiled down: (§1)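 Spectrophotometric growth readings were taken following 22–24 h at 35 °C. Before that, organisms in 1.1× CAMHB were mixed with imipenem, used at 4 μg/ml in assay, and test compound.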

Assay [4] deals with Escherichia coli expressing NDM-1 (CLB30016). The assay is described as above. The class given is cell-based. Particulars: (CLB30016, NDM-1), 95% growth inhibition. A digest of the protocol:
as §1

Assay [5] deals with Serratia marcescens expressing IMP-1 (CL5741). The description is as above. The class given is cell-based. To be noted: Serratia marcescens CL5741 (IMP-1), 95% growth inhibition. The method, boiled down:
as §1

Assay [6] addresses NDM-1 (Klebsiella pneumoniae, UniProt C7C422). The assay is described as follows: biochemical. The class given is biochemical. Particulars: NDM-1 enzyme, CCF2-FA substrate; read-out: NDM-1 IC50.

The structures appear in SMILES notation.

IMP-1, sequence (P52699 whole entry, looked up): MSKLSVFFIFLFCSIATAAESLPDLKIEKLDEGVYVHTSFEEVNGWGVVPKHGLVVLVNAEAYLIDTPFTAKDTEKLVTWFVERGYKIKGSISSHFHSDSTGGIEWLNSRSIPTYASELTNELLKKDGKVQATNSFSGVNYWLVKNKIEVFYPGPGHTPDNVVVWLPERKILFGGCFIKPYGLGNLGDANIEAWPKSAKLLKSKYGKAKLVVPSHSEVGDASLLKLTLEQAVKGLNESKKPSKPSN
NDM-1, sequence (C7C422 whole entry, looked up, species assumed): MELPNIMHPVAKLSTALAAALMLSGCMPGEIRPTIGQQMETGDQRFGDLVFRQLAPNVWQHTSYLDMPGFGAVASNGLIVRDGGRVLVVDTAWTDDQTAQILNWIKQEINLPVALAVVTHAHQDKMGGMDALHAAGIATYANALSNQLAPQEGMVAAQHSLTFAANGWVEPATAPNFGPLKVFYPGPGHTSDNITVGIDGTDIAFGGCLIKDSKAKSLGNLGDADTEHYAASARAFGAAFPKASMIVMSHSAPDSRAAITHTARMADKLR

The term IC50 denotes the midpoint of a concentration-inhibition curve. As to `NS(=O)(=O)c1cccc(-c2cccc3ccoc23)c1-c1nn[nH]n1` [Example 522, 3-(Benzofuran-7-yl)-2-(2H-tetrazol-5-yl)benzenesulfonamide], the IC50 in assay [1] came out at 263 nM; in assay [2], 52.9 nM; in assay [6], 3.4 nM. Also, in assay [3], the “Klebsiella pneumoniae MITC95” value is 50 µM. Also, the “Escherichia coli MITC95” value in assay [4] worked out at 2.344 µM. The “Serratia marcescens MITC95” value in assay [5] turned out to be 18.75 µM.
In the case of `Nc1cc(-c2cccc(S(N)(=O)=O)c2-c2nn[nH]n2)cnc1N` [Example 523, 3-(5,6-Diaminopyridin-3-yl)-2-(2H-tetrazol-5-yl)benzenesulfonamide], the values for the IC50 in assay [1], in assay [2] and in assay [6] were 1210 nM, 226 nM and 20.2 nM, respectively. Also, the “Klebsiella pneumoniae MITC95” value in assay [3] worked out at 4.125 µM. Moreover, the “Escherichia coli MITC95” value in assay [4] came to 0.125 µM. Besides, in assay [5], the “Serratia marcescens MITC95” value stood at 9.375 µM.
Consider `N=C(N)NC1CCC(CCc2ccc(C(F)(F)F)c(S(N)(=O)=O)c2-c2nn[nH]n2)CC1` (stereo not drawn) [Example 524, 3-(2-(4-Guanidinocyclohexyl)ethyl)-2-(2H-tetrazol-5-yl)-6-(trifluoromethyl)benzenesulfonamide], for which the values for the IC50 in assay [1], in assay [2] and in assay [6] were 5.13 nM, 1.05 nM and 24.8 nM, respectively. Besides, the “Klebsiella pneumoniae MITC95” value in assay [3] worked out at 12.5 µM. In addition, the “Escherichia coli MITC95” value in assay [4] came out at 12.5 µM. Besides, the “Serratia marcescens MITC95” value in assay [5] was 6.25 µM.
In the case of `NS(=O)(=O)c1c(C(F)(F)F)ccc(-c2cccc3c2CNC3=O)c1-c1nn[nH]n1` [Example 525, 3-(1-Oxoisoindolin-4-yl)-2-(2H-tetrazol-5-yl)-6-(trifluoromethyl)benzenesulfonamide], the values for the IC50 in assay [1], in assay [2] and in assay [6] were 6.85 nM, 0.0897 nM and 0.541 nM, respectively. Besides, the “Klebsiella pneumoniae MITC95” value in assay [3] amounted to 4.688 µM. For the same molecule, the “Escherichia coli MITC95” value in assay [4] turned out to be 3.125 µM. Also, the “Serratia marcescens MITC95” value in assay [5] turned out to be 12.5 µM.
In the case of `Nc1cccc2c(-c3ccc(C(F)(F)F)c(S(N)(=O)=O)c3-c3nn[nH]n3)cc(C(=O)O)nc12` [Example 526, 8-Amino-4-(3-sulfamoyl-2-(2H-tetrazol-5-yl)-4-(trifluoromethyl)phenyl)quinoline-2-carboxylic acid], the half-inhibitory concentration (IC50) in assay [1] was found to be 4.58 nM; in assay [2], 1.59 nM; in assay [6], 1.85 nM. For the same molecule, the “Klebsiella pneumoniae MITC95” value in assay [3] came to 50 µM. Also, the “Escherichia coli MITC95” value in assay [4] amounted to 25 µM. For the same molecule, the “Serratia marcescens MITC95” value in assay [5] was 100 µM.
Consider `NC(=O)c1ccc(-c2ccc(C(F)(F)F)c(S(N)(=O)=O)c2-c2nn[nH]n2)cn1` [Example 527, 5-(3-Sulfamoyl-2-(2H-tetrazol-5-yl)-4-(trifluoromethyl)phenyl)picolinamide], for which the values for the IC50 in assay [1], in assay [2] and in assay [6] were 10.6 nM, 2.89 nM and 7.03 nM, respectively. For the same molecule, in assay [3], the “Klebsiella pneumoniae MITC95” value worked out at 12.5 µM. Also, the “Escherichia coli MITC95” value in assay [4] was 6.25 µM. The “Serratia marcescens MITC95” value in assay [5] came to 12.5 µM.
For the molecule `NC(=O)c1cc2cccc(-c3ccc(C(F)(F)F)c(S(N)(=O)=O)c3-c3nn[nH]n3)c2[nH]1` [Example 528, 7-(3-Sulfamoyl-2-(2H-tetrazol-5-yl)-4-(trifluoromethyl)phenyl)-1H-indole-2-carboxamide], the IC50 in assay [1] was 0.425 nM; in assay [2] it was 0.146 nM; in assay [6], 0.0248 nM. In assay [3], the “Klebsiella pneumoniae MITC95” value stood at 12.5 µM. Also, in assay [4], the “Escherichia coli MITC95” value was 1.563 µM. Besides, the “Serratia marcescens MITC95” value in assay [5] amounted to 3.125 µM.
Turning to `NS(=O)(=O)c1c(C2CC2)ccc(-c2cccc3ncccc23)c1-c1nn[nH]n1` [Example 529, 6-Cyclopropyl-3-(quinolin-5-yl)-2-(2H-tetrazol-5-yl)benzenesulfonamide], the IC50 came to 6.3 nM in assay [1], 0.991 nM in assay [2] and 2.2 nM in assay [6]. For the same molecule, the “Klebsiella pneumoniae MITC95” value in assay [3] is 9.375 µM. For the same molecule, the “Escherichia coli MITC95” value in assay [4] came to 3.906 µM. In assay [5], the “Serratia marcescens MITC95” value turned out to be 0.7813 µM.
On to `NS(=O)(=O)c1c(CCO)ccc(-c2cccc3ncccc23)c1-c1nn[nH]n1` [Example 530, 6-(2-Hydroxyethyl)-3-(quinolin-5-yl)-2-(2H-tetrazol-5-yl)benzenesulfonamide], for which the IC50 in assay [1] amounted to 25.9 nM; in assay [2], 0.3 nM; in assay [6] it was 1.15 nM. The “Klebsiella pneumoniae MITC95” value in assay [3] is 4.688 µM. Further, the “Escherichia coli MITC95” value in assay [4] is 3.125 µM. Besides, in assay [5], the “Serratia marcescens MITC95” value was found to be 0.5859 µM.
With `Nc1nc2c(-c3ccc(CCO)c(S(N)(=O)=O)c3-c3nn[nH]n3)cccc2s1` [Example 531, 3-(2-Aminobenzo[d]thiazol-4-yl)-6-(2-hydroxyethyl)-2-(2H-tetrazol-5-yl)benzenesulfonamide], the IC50 in assay [1] was 32.1 nM; in assay [2], 8.36 nM; in assay [6], 2.07 nM. For the same molecule, the “Klebsiella pneumoniae MITC95” value in assay [3] came to 12.5 µM. Further, the “Escherichia coli MITC95” value in assay [4] came to 6.25 µM. In addition, the “Serratia marcescens MITC95” value in assay [5] was 12.5 µM.
Turning to `Nc1nc2c(-c3ccc(C(F)CO)c(S(N)(=O)=O)c3-c3nn[nH]n3)cccc2s1` (stereo not drawn) [Example 532, 3-(2-Aminobenzo[d]thiazol-4-yl)-6-(1-fluoro-2-hydroxyethyl)-2-(2H-tetrazol-5-yl)benzenesulfonamide], the IC50 in assay [1] is 6.42 nM; in assay [2] it was 3.96 nM; in assay [6], 0.598 nM. Moreover, in assay [3], the “Klebsiella pneumoniae MITC95” value came to 12.5 µM. In assay [4], the “Escherichia coli MITC95” value is 12.5 µM. In addition, the “Serratia marcescens MITC95” value in assay [5] is 12.5 µM.
As for `Nc1nc2c(-c3ccc(CCCO)c(S(N)(=O)=O)c3-c3nn[nH]n3)cccc2s1` [Example 533, 3-(2-Aminobenzo[d]thiazol-4-yl)-6-(3-hydroxypropyl)-2-(2H-tetrazol-5-yl)benzenesulfonamide], the 50% inhibitory concentration (IC50) in assay [1] was determined as 16.6 nM; in assay [2], 2.88 nM; in assay [6] it was 0.878 nM. Further, the “Klebsiella pneumoniae MITC95” value in assay [3] came out at 12.5 µM. In assay [4], the “Escherichia coli MITC95” value worked out at 3.125 µM. Moreover, the “Serratia marcescens MITC95” value in assay [5] stood at 12.5 µM.
`Nc1nc2c(-c3ccc(CCCCCO)c(S(N)(=O)=O)c3-c3nn[nH]n3)cccc2s1` [Example 534, 3-(2-Aminobenzo[d]thiazol-4-yl)-6-(5-hydroxypentyl)-2-(2H-tetrazol-5-yl)benzenesulfonamide]: the IC50 stood at 9.53 nM in assay [1], 0.843 nM in assay [2] and 0.444 nM in assay [6]. Also, the “Klebsiella pneumoniae MITC95” value in assay [3] is 12.5 µM. Further, in assay [4], the “Escherichia coli MITC95” value is 6.25 µM. Moreover, in assay [5], the “Serratia marcescens MITC95” value was 25 µM.
For `Nc1nc2c(-c3ccc(CC4CCC4)c(S(N)(=O)=O)c3-c3nn[nH]n3)cccc2s1` [Example 535, 3-(2-Aminobenzo[d]thiazol-4-yl)-6-(cyclobutylmethyl)-2-(2H-tetrazol-5-yl)benzenesulfonamide], the IC50 in assay [1] was 6.86 nM; in assay [2], 2.71 nM; in assay [6] it was 0.844 nM. Also, in assay [3], the “Klebsiella pneumoniae MITC95” value was 50 µM. For the same molecule, the “Escherichia coli MITC95” value in assay [4] worked out at 6.25 µM. Moreover, the “Serratia marcescens MITC95” value in assay [5] worked out at 25 µM.
On to `Nc1ncc(-c2ccc(-c3cccc4sc(N)nc34)c(-c3nn[nH]n3)c2S(N)(=O)=O)s1` [Example 536, 3-(2-Aminobenzo[d]thiazol-4-yl)-6-(2-aminothiazol-5-yl)-2-(2H-tetrazol-5-yl)benzenesulfonamide], for which the half-inhibitory concentration (IC50) in assay [1] stood at 39.4 nM; in assay [2], 4.12 nM; in assay [6] it was 2.71 nM. Also, the “Klebsiella pneumoniae MITC95” value in assay [3] is 25 µM. The “Escherichia coli MITC95” value in assay [4] was found to be 6.25 µM. For the same molecule, in assay [5], the “Serratia marcescens MITC95” value is 50 µM.
Take `Nc1nc2c(-c3ccc(CCC(=O)O)c(S(N)(=O)=O)c3-c3nn[nH]n3)cccc2s1` [Example 538, 3-(4-(2-Aminobenzo[d]thiazol-4-yl)-2-sulfamoyl-3-(2H-tetrazol-5-yl)phenyl)propanoic acid]: the values for the IC50 in assay [1], in assay [2] and in assay [6] were 53.8 nM, 40.3 nM and 1.4 nM, respectively. Also, the “Klebsiella pneumoniae MITC95” value in assay [3] stood at 100 µM. Further, the “Escherichia coli MITC95” value in assay [4] was 6.25 µM. Further, the “Serratia marcescens MITC95” value in assay [5] was found to be 50 µM.
In the case of `NC(=O)CCc1ccc(-c2cccc3sc(N)nc23)c(-c2nn[nH]n2)c1S(N)(=O)=O` [Example 539, 3-(4-(2-Aminobenzo[d]thiazol-4-yl)-2-sulfamoyl-3-(2H-tetrazol-5-yl)phenyl)propanamide], the 50% inhibitory concentration (IC50) was found to be 7.62 nM in assay [1], 1.85 nM in assay [2] and 0.192 nM in assay [6]. Further, the “Klebsiella pneumoniae MITC95” value in assay [3] worked out at 25 µM. In addition, the “Escherichia coli MITC95” value in assay [4] came to 3.125 µM. Moreover, in assay [5], the “Serratia marcescens MITC95” value is 12.5 µM.
`Nc1nc2c(-c3ccc(CCC4CCC(N)CC4)c(S(N)(=O)=O)c3-c3nn[nH]n3)cccc2s1` (stereo not drawn) [Example 541, 3-(2-Aminobenzo[d]thiazol-4-yl)-6-(2-(4-aminocyclohexyl)ethyl)-2-(2H-tetrazol-5-yl)benzenesulfonamide]: the IC50 was determined as 7.21 nM in assay [1], 5.11 nM in assay [2] and 0.133 nM in assay [6]. The “Klebsiella pneumoniae MITC95” value in assay [3] was 25 µM. In addition, the “Escherichia coli MITC95” value in assay [4] is 3.125 µM. The “Serratia marcescens MITC95” value in assay [5] stood at 6.25 µM.
